Assay results taken from PMC8322070, “A novel orally active HDAC6 inhibitor T-518 shows a therapeutic potential for Alzheimer’s disease and tauopathy in mice” (Scientific Reports, 2021).

What was measured:
[1] = test system: tubulin acetylation in WT mice or HDAC6 KO mice; experiment: HDAC6 dependency of in vivo tubulin acetylation, WT and HDAC6 KO mice; parameters: species or system mouse; conditions: 300 mg/kg
Text: HDAC6 knockout (KO) mice were generated by deletion of a ~ 1.7-kbp region including exon15–20 of the Hdac6 gene using fertilized C57BL/6J eggs and the CRISPR-Cas9 system. […] Male hemizygous KO mice were selected by qPCR detection of the Hdac6 intron16 sequence (Figure S2A). The qPCR primers and probe sequences were as follows: FW primer; 5′-[…]-3′, RV primer; 5′-[…]-3′ and MGB probe; 5′-CCAGGCCATGTTTT-3′.
(§1) T-518, ACY-738, Ricolinostat, and Tubastatin A were synthesized in Takeda. For in vitro cellular experiments, the compounds were solubilized with DMSO and diluted in the culture medium at the indicated concentrations. For in vivo experiments, the compound was reconstituted in 0.5% methylcellulose and administered orally at the indicated doses. After administration, mouse hippocampus was isolated and homogenized in RIPA extraction buffer (50 mM Tris–HCl, 150 mM NaCl, 1% NP-40, 0.5% sodium deoxycholate, and 0.1% SDS, pH 8.0) supplemented with protease and phosphatase inhibitor cocktail (Thermo Fischer, Waltham, MA, USA). The homogenate was centrifuged at 10,000g for 15 min and the supernatant was taken as the RIPA-soluble fraction.
Acetylated α-tubulin and total tubulin levels were measured by sandwich ELISA. […]

[2] = test system: acetylated tubulin in hippocampus; experiment: In vivo pharmacodynamics: acetylated tubulin in hippocampus (ELISA); conditions: 0.3–300 mg/kg orally, 4 h after administration, C57BL/6J mice
Experimental: as §1
Acetylated α-tubulin and total tubulin levels were measured by sandwich ELISA. Ninety six-well plates (Microlite2+, Thermo) were coated with α-tubulin capture antibody (1:100) by overnight incubation at 4 °C, washed 4 times with PBS'T, treated with blocking buffer (1% bovine serum albumin in PBS'T) at 37 °C for 2 h, and washed another 4 times with PBS’T. Cell or tissues lysate was added to the wells and plates were incubated at 37 °C for 2 h. […]

HDAC1‒5, 7‒9, and 11 = experiment: HDAC selectivity panel (Reaction Biology Corporation); assay type: biochemical; conditions: up to 10 μM; heat map Fig. 2A
[3] = test system: tubulin acetylation in mouse primary neural cultures; experiment: Tubulin acetylation in mouse primary neural culture (ELISA); assay type: cell-based; conditions: 24 h
Experimental: as §1
(§2) Primary cortical neurons were prepared from E14 C57BL/6J mouse embryos (CLIEA Japan, Inc., Tokyo, Japan) using papain-containing Neuron Dissociation Solutions (Fujifilm Wako, Tokyo, Japan). Isolated cells were suspended in Neurobasal Medium containing B-27 (Thermo Fisher) and seeded on poly-D-lysine-coated plates (Corning, NY, USA) under 5% CO2 at 37 °C for 6 days in vitro (DIV) prior to evaluation of HDAC6 inhibitors. Cells were treated with HDAC6 inhibitors at the indicated concentrations for 24 h and lysed in RIPA extraction buffer (50 mM Tris–HCl, 150 mM NaCl, 1% NP-40, 0.5% sodium deoxycholate, and 0.1% SDS, pH 8.0) supplemented with protease and phosphatase inhibitor cocktail (Thermo Fisher).
Acetylated α-tubulin and total tubulin levels were measured by sandwich ELISA. Ninety six-well plates (Microlite2+, Thermo) were coated with α-tubulin capture antibody (1:100) by overnight incubation at 4 °C, washed 4 times with PBS'T, treated with blocking buffer (1% bovine serum albumin in PBS'T) at 37 °C for 2 h, and washed another 4 times with PBS’T. Cell or tissues lysate was added to the wells and plates were incubated at 37 °C for 2 h. Plates were then washed 4 times with PBST, incubated with a detection antibody for acetylated tubulin or total α-tubulin diluted in blocking buffer at 37℃ for 1 h, rewashed 4 more times with PBST, incubated with a mouse secondary antibody conjugated to horseradish peroxidase (HRP) for 30 min, wash 4 times again with PBST, and then incubated with chemiluminescent substrate (SuperSignal).

[4] = test system: Histone H3 acetylation in mouse primary neural cultures; experiment: Histone H3 acetylation in mouse primary neural culture (Western blotting); assay type: cell-based; conditions: DIV6 mouse primary neural culture, 3 and 30 μM, 24 h
Experimental: as §1, §2
Cell lysate or in vivo protein samples were separated by 10% SDS-PAGE, then electrophoretically transferred to 0.45 μm poly-vinylidene difluoride membranes (Millipore). Membranes were blocked for 1 h in Blocking Reagent (TOYOBO, Osaka, Japan), probed with primary antibodies followed by labeling with HRP-coupled secondary antibodies (Amersham, Piscataway, NJ), and then visualized using chemiluminescence reagent (ECL; Amersham). Images were captured using ImageQuant LAS 4000 (GE healthcare Bio-Sciences, Marlborough, MA, USA). Quantitative densitometric analyses were conducted using ImageQuant TL (GE healthcare Bio-Sciences). The protocol was slightly modified for detection of HDAC6 in cortex. Briefly, cerebral cortex was homogenized in RIPA buffer supplemented with 1 μM microstatin, 1 μM MG115, 40 μM Leupeptin, 100 μM ABSF, and 2 mM sodium orthovanadate, separated by 7.5–15% gradient SDS-PAGE and electrophoretically transferred to 0.45 μm poly-vinylidene difluoride membranes (Millipore). Membranes were blocked for 1 h with ECL Prime Blocking Reagent (Amersham, Piscataway, NJ) prior to immunoblotting, visualization, and densitometry as described above.

experimental mice = experiment: Tolerability of chronic dosing; assay type: in vivo

O=C1c2cc(-c3nnc(C(F)F)o3)cnc2CN1[C@@H]1CCCC[C@H]1NC(=O)C(F)(F)C(F)(F)F [T-518, N-[(1R,2R)-2-{3-[5-(difluoromethyl)-1,3,4-oxadiazol-2-yl]-5-oxo-5H,6H,7H-pyrrolo[3,4-b]pyridin-6-yl}cyclohexyl]-2,2,3,3,3-pentafluoropropanamide]
tubulin acetylation in HDAC6 KO mice ([1]; 27-week-old male HDAC6 KO mice): had no effect
tubulin acetylation in WT mice ([1]; 27-week-old male WT mice): significantly elevated tubulin acetylation
tubulin acetylation in hippocampi [2]: dose-dependently increased tubulin acetylation
inhibition of HDAC1‒5, 7‒9, and 11 in HDAC panel (HDAC1‒5, 7‒9, and 11): does not inhibit
effect on tubulin acetylation ([3]; DIV6 mouse primary neural culture, 0.1–10 μM, ELISA): significantly and concentration-dependently elevates tubulin acetylation
concentration at which elevation of tubulin acetylation is statistically significant ([3]; mouse neurons): ≥ 0.1 µM
effect on Histone H3 acetylation [4]: neither T-518 nor Tubastatin A at 3 and 30 μM demonstrates this activity
tolerability of chronic dosing (experimental mice): well tolerated
